Tested on: rat primary hepatocytes
Assay: Secretion of newly synthesized ([35S]methionine-labeled) VLDL-apoproteins by rat primary hepatocytes incubated with fatty acid/BSA complexes
Format: cell-based
Conditions: fatty acid/BSA complexes (0.8 mM FA), VLDL fraction
Method: Cells were plated at a density of 2×10^6 cells/ml on 60-mm culture dishes (previously coated with poly-D-lysine) in modified M199 medium (M199, 1% fetal bovine serum [FBS], 1 mM nicotinamide, 0.1 nM insulin, 3 mg/ml choline, 1.1% L-glutamine, 1% BSA). After a four-hour attachment period, the medium was changed (modified M199 identical to the above except BSA was omitted and the concentration of FBS was raised to 10%). The next morning, cells were washed in serum-free medium three times, the experimental media added, and the cells incubated at 37° C. for 4-6 hours. The experimental medium consisted of serum-free RPMI containing the appropriate isotopes (see below) and fatty acids (FA) present at a final concentration of 0.8 mM complexed to BSA (FA:BSA molar ratio=5:1). The fatty acids used were oleic (OA), EPA, and DHA. Control medium was identical, except that BSA (0.16 mM) without fatty acids was present. For metabolic labeling of proteins, [^35S]methionine (70 uCi/ml) was included in the experimental media.
Following the 4-6 hour incubation period, the cell monolayer was washed, then solubilized in 0.1 M NaOH, and the cell protein determined by the Lowry method (Lowry, O. H., Rosebrough, N. J., Farr, A. L., and Randall, R. J. (1951) J Biol Chem 193, 265-75). Each 60 mm dish contained approximately 1-1.5 mg of cell protein. The secreted apoproteins were isolated from the medium either by ultracentrifugation or immunoprecipitation. To isolate the d<1.006 (VLDL) and 1.006<d<1.063 (IDL and LDL) g/ml density classes by centrifugation, sequential 20 hour runs at 48,000 rpm in a 50 Ti Beckman rotor at 4° C. were performed. After the first run at d=1.006, the upper VLDL layer was harvested and the density of the infranatant adjusted to 1.066 g/ml with solid KBr. After being overlaid with a KBr solution of density 1.063, the adjusted infranatant was re-centrifuged as before to isolate the IDL and LDL fractions. In some experiments, the HDL fraction (1.063<d<1.21) was isolated by sequential density centrifugation. Lipoprotein fractions were then dialyzed against 0.9% NaCl containing 10 mM unlabeled methionine, 0.2 mM PMSF, and 2 mM EDTA. Dialyzed lipoproteins were delipidated using 9 volumes of 100% isopropanol. Apoproteins were then collected by centrifugation in a Sorval HB-4 rotor at 10,000 rpm and 4° C. for 20 min, and dissolved in buffer (0.01 M phosphate, pH 7,1 % SDS, 10% glycerol), in preparation for electrophoresis.
To immunoprecipitate apoB or apoE from unfractionated conditioned medium, monospecific rabbit antiserum to rat apoB or apoE was used. Briefly, an aliquot of the medium was mixed with an equal volume of diluted antiserum (1:100 in PBS and 1% BSA) and incubated overnight at 4° C. Staph A was added in the form of immunoprecipitin, and the resultant precipitate containing the immune complexes was washed extensively, the staph A cells removed, and the isolated apoprotein dissolved in gel sample buffer (0.0625M tris/Cl, pH 6.8, 20% glycerol, 2% SDS). Electrophoretic separation of apoVLDL, apoIDL/LDL, and immunoprecipitates was accomplished using 3.5% acrylamide-18% glycerol gels as described (Maguire, G. F., Lee, M., and Connelly, P. W. (1989) J Lipid Res 30, 757-61). An aliquot of each sample was taken for scintillation counting, so that total radioactivity applied to each lane could be determined. Also, protein size standards were included in each gel.
After electrophoresis, the gels were stained, fixed, soaked in Enhance fluor solution, and dried following protocols supplied by the manufacturer. Dried gels were then exposed to X-ray film at −70° C. and signals on the resulting fluorograms were typically quantified by densitometry or phosphorimaging. Using the total radioactivity applied to each lane of the gel and the relative signal intensity of each band in that lane, the radioactivity associated with each apoprotein species was calculated. […]

For `CCCCCCCC/C=C\CCCCCCCC(=O)O` [OA, oleic acid], the “secretion of newly synthesized VLDL-ApoB48, percentage of secretion observed with BSA alone” value was 132 ± 11 percentage, the “secretion of newly synthesized VLDL-ApoB100, percentage of secretion observed with BSA alone” value was 96 ± 4 percentage and the “secretion of newly synthesized VLDL-ApoE, percentage of secretion observed with BSA alone” value was 84 ± 3 percentage.

— patent US20030170643A1, “Regulation of apoB treatment and drug screening for cardiovascular and metabolic disorders or syndromes” (priority 1999, published 2003)
